In patent US8471005B2 (Cephalon, Inc., priority 2008, dated 2013) one finds IC50 data, which are given here for 26 compounds.

pIC50: −log10 of the molar value.

One assay addresses T1, ALK (Homo sapiens, UniProt Q9UM73).
T1 construct: host or cells: baculovirus expression system
Kind of assay: ALK Kinase Assay (ELISA/TRF, PLC-γ substrate). The assay is classed as biochemical. The note with it: ALK kinase inhibition, 1 μM ATP; read-out: ALK Potency. The method in brief:
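PLC-γ coat 10 μg/mL in TBS; ALK 30 ng/ml added to start; 37° C, 15 min; Eu-N1 PT66 antibody detection (TRF). IC50: % inhibition vs log10 [cpd], variable-slope sigmoidal fit.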
(ELISA stands for enzyme-linked immunosorbent assay.)

A further assay addresses T2, JAK2 (Homo sapiens, UniProt O60674).
T2 construct: host or cells: baculovirus expression system
Kind of assay: Recombinant Human JAK2 Kinase Assay (TRF). Type of assay: biochemical. The following applies: JAK2 kinase inhibition, 0.2 μM ATP; read-out: JAK2 Potency. An outline of the steps: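 Baculovirus-expressed JAK2 (15 ng/ml) phosphorylated a biotinylated 15-mer peptide captured on Neutravidin-coated plates, in 20 mM HEPES pH 7.2 with 0.2 μM ATP, 1 mM MnCl2, 0.1% BSA and 2.5% DMSO. Reaction ran 20 min at room temperature; phosphopeptide was detected by time-resolved fluorescence with Eu-N1-labelled PY100 antibody.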

T2 sequence (O60674 whole entry): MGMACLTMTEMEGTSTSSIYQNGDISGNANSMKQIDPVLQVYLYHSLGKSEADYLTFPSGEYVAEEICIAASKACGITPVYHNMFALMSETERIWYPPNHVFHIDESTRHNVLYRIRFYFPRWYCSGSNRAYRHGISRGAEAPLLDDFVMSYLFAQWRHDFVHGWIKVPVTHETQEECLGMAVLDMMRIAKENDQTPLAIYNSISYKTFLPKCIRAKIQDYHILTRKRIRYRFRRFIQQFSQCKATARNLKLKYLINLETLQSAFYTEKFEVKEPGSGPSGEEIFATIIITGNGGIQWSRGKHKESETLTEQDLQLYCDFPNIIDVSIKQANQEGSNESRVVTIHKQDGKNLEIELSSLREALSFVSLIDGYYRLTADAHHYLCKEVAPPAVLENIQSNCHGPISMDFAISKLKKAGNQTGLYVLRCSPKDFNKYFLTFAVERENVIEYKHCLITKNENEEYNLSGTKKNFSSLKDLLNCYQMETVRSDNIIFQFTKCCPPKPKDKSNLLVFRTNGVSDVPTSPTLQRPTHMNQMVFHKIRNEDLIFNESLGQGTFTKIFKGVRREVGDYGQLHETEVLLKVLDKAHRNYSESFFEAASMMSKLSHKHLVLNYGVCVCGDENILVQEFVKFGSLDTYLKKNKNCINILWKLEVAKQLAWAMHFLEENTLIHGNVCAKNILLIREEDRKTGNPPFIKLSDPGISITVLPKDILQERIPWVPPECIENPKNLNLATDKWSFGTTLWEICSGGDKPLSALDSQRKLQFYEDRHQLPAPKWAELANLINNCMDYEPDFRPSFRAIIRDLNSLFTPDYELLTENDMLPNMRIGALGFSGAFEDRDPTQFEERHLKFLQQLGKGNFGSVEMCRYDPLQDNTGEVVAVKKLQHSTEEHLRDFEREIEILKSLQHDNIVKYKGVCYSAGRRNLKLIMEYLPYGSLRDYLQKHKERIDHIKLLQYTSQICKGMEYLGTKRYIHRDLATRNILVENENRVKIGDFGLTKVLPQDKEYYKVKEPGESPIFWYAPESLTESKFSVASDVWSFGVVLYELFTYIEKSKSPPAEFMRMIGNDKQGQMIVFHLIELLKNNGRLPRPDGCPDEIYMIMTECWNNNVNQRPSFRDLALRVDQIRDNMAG
T1 sequence (Q9UM73 19-1620): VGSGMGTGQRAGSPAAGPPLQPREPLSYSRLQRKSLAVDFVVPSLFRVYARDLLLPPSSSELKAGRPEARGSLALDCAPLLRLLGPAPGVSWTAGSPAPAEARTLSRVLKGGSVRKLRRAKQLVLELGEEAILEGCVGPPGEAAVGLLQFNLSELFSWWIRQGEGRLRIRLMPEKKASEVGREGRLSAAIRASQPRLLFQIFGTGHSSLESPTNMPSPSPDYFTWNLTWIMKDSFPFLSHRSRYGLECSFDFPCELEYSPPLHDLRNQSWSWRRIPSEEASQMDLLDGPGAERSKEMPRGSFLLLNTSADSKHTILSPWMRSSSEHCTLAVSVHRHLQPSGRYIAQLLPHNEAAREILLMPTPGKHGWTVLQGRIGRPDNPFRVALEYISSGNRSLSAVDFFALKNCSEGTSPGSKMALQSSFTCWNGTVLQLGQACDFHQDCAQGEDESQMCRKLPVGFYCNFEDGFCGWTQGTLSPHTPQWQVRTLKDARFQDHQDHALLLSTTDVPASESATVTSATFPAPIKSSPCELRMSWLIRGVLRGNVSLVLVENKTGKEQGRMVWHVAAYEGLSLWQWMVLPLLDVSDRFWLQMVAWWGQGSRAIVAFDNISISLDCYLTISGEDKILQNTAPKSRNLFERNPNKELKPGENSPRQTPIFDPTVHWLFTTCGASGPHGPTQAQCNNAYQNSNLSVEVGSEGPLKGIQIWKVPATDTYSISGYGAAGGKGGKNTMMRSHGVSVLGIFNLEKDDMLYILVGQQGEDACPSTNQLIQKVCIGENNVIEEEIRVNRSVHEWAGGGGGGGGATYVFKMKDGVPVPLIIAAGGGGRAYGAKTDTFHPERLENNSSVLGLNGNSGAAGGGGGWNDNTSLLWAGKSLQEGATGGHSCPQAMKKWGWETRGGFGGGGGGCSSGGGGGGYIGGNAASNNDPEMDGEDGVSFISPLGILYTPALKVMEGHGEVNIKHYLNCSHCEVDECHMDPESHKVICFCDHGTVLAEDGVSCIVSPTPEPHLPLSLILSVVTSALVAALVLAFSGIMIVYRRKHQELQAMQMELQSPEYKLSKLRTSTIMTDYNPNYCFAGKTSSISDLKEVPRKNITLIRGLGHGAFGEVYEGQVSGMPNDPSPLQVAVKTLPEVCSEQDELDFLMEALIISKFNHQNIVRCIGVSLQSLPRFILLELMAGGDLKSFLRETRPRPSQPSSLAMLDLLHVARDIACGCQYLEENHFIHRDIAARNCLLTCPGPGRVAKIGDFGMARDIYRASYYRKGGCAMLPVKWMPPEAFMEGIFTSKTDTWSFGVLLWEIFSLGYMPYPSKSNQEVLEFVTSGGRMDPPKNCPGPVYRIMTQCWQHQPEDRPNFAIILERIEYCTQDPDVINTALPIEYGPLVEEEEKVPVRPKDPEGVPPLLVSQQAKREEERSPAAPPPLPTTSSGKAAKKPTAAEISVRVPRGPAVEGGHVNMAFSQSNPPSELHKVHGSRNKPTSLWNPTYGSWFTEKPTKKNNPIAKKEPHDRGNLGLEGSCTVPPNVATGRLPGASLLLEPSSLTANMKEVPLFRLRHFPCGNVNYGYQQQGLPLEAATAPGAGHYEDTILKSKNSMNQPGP

In the case of `COc1ccc(-c2ccc3cnc(Nc4ccc(-c5csnn5)cc4)nn23)cn1` [Example 909, [7-(6-Methoxy-pyridin-3-yl)-pyrrolo[2,1-f][1,2,4]triazin-2-yl]-(4-[1,2,3]thiadiazol-4-yl-phenyl)-amine], the pIC50 was 5.00 to 6.00 on ALK and greater than 7.00 on JAK2.

As to `COc1ccc(-c2ccc3cnc(Nc4ccc(C5CCN(C)CC5)c(OC)c4)nn23)cn1` [Example 910, [3-Methoxy-4-(1-methyl-piperidin-4-yl)-phenyl]-[7-(6-methoxy-pyridin-3-yl)-pyrrolo[2,1-f][1,2,4]triazin-2-yl]-amine], the pIC50 at ALK and at JAK2 was greater than 7.00 throughout.

For the compound `COc1ccc(-c2ccc3cnc(Nc4ccc(C5CCN(CC(N)=O)CC5)c(OC)c4)nn23)cn1` [Example 911, 2-(4-{2-Methoxy-4-[7-(6-methoxy-pyridin-3-yl)-pyrrolo[2,1-f][1,2,4]triazin-2-ylamino]-phenyl}-piperidin-1-yl)-acetamide], the pIC50 on ALK and at JAK2 was greater than 7.00 in each case.

For `COc1ccccc1-c1ccc2cnc(Nc3ccc(C4CCN(CC(N)=O)CC4)c(OC)c3)nn12` [Example 912, 2-(4-{2-Methoxy-4-[7-(2-methoxy-phenyl)-pyrrolo[2,1-f][1,2,4]triazin-2-ylamino]-phenyl}-piperidin-1-yl)-acetamide], the pIC50 at ALK and on JAK2 was greater than 7.00 throughout.

Turning to `COc1cc(Nc2ncc3ccc(-c4ccccc4N(C)S(C)(=O)=O)n3n2)ccc1C1CCN(C)CC1` [Example 913, N-(2-{2-[3-Methoxy-4-(1-methyl-piperidin-4-yl)-phenylamino]-pyrrolo[2,1-f][1,2,4]triazin-7-yl}-phenyl)-N-methyl-methanesulfonamide], the pIC50 at ALK and on JAK2 was greater than 7.00 each time.

In the case of `COc1cc(Nc2ncc3ccc(-c4ccccc4N(C)S(C)(=O)=O)n3n2)ccc1C1CCN(CC(N)=O)CC1` [Example 914, 2-[4-(4-{7-[2-(Methanesulfonyl-methyl-amino)-phenyl]-pyrrolo[2,1-f][1,2,4]triazin-2-ylamino}-2-methoxy-phenyl)-piperidin-1-yl]-acetamide], the pIC50 on ALK and on JAK2 was greater than 7.00 each time.

Turning to `COc1ccccc1-c1ccc2cnc(Nc3ccc4c(c3)CCN(C)C4)nn12` [Example 915, [7-(2-Methoxy-phenyl)-pyrrolo[2,1-f][1,2,4]triazin-2-yl]-(2-methyl-1,2,3,4-tetrahydro-isoquinolin-6-yl)-amine], the pIC50 on ALK and on JAK2 was greater than 7.00 each time.

For the compound `COc1ccc(-c2ccc3cnc(Nc4ccc5c(c4)CCN(CC(N)=O)C5)nn23)cn1` [Example 916, 2-{6-[7-(6-Methoxy-pyridin-3-yl)-pyrrolo[2,1-f][1,2,4]triazin-2-ylamino]-3,4-dihydro-1H-isoquinolin-2-yl}-acetamide], the pIC50 on ALK was less than 5.00; on JAK2, greater than 7.00.

For the compound `COc1ccccc1-c1ccc2cnc(Nc3ccc4c(c3)CCN(CC(N)=O)C4)nn12` [Example 917, 2-{6-[7-(2-Methoxy-phenyl)-pyrrolo[2,1-f][1,2,4]triazin-2-ylamino]-3,4-dihydro-1H-isoquinolin-2-yl}-acetamide], the pIC50 at ALK is 6.00 to 7.00; on JAK2, greater than 7.00.

For the compound `CN(c1ccccc1-c1ccc2cnc(Nc3ccc4c(c3)CCN(CC(N)=O)C4)nn12)S(C)(=O)=O` [Example 918, 2-(6-{7-[2-(Methanesulfonyl-methyl-amino)-phenyl]-pyrrolo[2,1-f][1,2,4]triazin-2-ylamino}-3,4-dihydro-1H-isoquinolin-2-yl)-acetamide], the pIC50 is 6.00 to 7.00 on ALK and greater than 7.00 on JAK2.

As for `COc1ccc(-c2ccc3cnc(Nc4ccc5c(c4)CCN(C)C5)nn23)cn1` [Example 919, [7-(6-Methoxy-pyridin-3-yl)-pyrrolo[2,1-f][1,2,4]triazin-2-yl]-(2-methyl-1,2,3,4-tetrahydro-isoquinolin-6-yl)-amine], the pIC50 on ALK was 6.00 to 7.00; at JAK2 it was greater than 7.00.

Regarding `CC(C)(C)NS(=O)(=O)c1cccc(-c2ccc3cnc(Nc4ccc5c(c4)CCN(CC(N)=O)C5)nn23)c1` [Example 920, 2-{6-[7-(3-tert-Butylsulfamoyl-phenyl)-pyrrolo[2,1-f][1,2,4]triazin-2-ylamino]-3,4-dihydro-1H-isoquinolin-2-yl}-acetamide], the pIC50 at ALK is 6.00 to 7.00; on JAK2, greater than 7.00.

Regarding `CN1CCc2cc(Nc3ncc4ccc(-c5cccc(S(=O)(=O)NC(C)(C)C)c5)n4n3)ccc2C1` [Example 921, N-tert-Butyl-3-[2-(2-methyl-1,2,3,4-tetrahydro-isoquinolin-6-ylamino)-pyrrolo[2,1-f][1,2,4]triazin-7-yl]-benzenesulfonamide], the pIC50 at ALK and on JAK2 was greater than 7.00 in each case.

With `COc1ccccc1-c1ccc2cnc(Nc3cc4c(cc3F)CCC(=O)N4)nn12` [Example 922, 6-Fluoro-7-[7-(2-methoxy-phenyl)-pyrrolo[2,1-f][1,2,4]triazin-2-ylamino]-3,4-dihydro-1H-quinolin-2-one], the pIC50 on ALK is 5.00 to 6.00; on JAK2, greater than 7.00.

As to `COc1cc(Nc2ncc3ccc(-c4cccc(S(C)(=O)=O)c4)n3n2)ccc1C1CCN(CC(N)=O)CC1` [Example 923, 2-(4-{4-[7-(3-Methanesulfonyl-phenyl)-pyrrolo[2,1-f][1,2,4]triazin-2-ylamino]-2-methoxy-phenyl}-piperidin-1-yl)-acetamide], the pIC50 is 6.00 to 7.00 on ALK and greater than 7.00 at JAK2.

On to `COc1cc(Nc2ncc3ccc(-c4cccc(S(=O)(=O)NC(C)(C)C)c4)n3n2)ccc1C1CCN(CC(N)=O)CC1` [Example 924, 2-(4-{4-[7-(3-tert-Butylsulfamoyl-phenyl)-pyrrolo[2,1-f][1,2,4]triazin-2-ylamino]-2-methoxy-phenyl}-piperidin-1-yl)-acetamide], for which the pIC50 at ALK and on JAK2 was greater than 7.00 throughout.

Regarding `COc1ccccc1-c1ccc2cnc(Nc3ccc4c(c3)CN(CC(N)=O)C4)nn12` [Example 925, 2-{5-[7-(2-Methoxy-phenyl)-pyrrolo[2,1-f][1,2,4]triazin-2-ylamino]-1,3-dihydro-isoindol-2-yl}-acetamide], the pIC50 was 6.00 to 7.00 on ALK and greater than 7.00 on JAK2.

For the compound `COc1ccc(-c2ccc3cnc(Nc4ccc5c(c4)CN(CC(N)=O)C5)nn23)cn1` [Example 926, 2-{5-[7-(6-Methoxy-pyridin-3-yl)-pyrrolo[2,1-f][1,2,4]triazin-2-ylamino]-1,3-dihydro-isoindol-2-yl}-acetamide], the pIC50 at ALK is 5.00 to 6.00; at JAK2 it was greater than 7.00.

For `CC(C)(C)NS(=O)(=O)c1cccc(-c2ccc3cnc(Nc4ccc5c(c4)CN(CC(N)=O)C5)nn23)c1` [Example 927, 2-{5-[7-(3-tert-Butylsulfamoyl-phenyl)-pyrrolo[2,1-f][1,2,4]triazin-2-ylamino]-1,3-dihydro-isoindol-2-yl}-acetamide], the pIC50 on ALK is 6.00 to 7.00; at JAK2, greater than 7.00.

For `NC(=O)CN1CCC(c2ccc(Nc3ncc4ccc(-c5cccc(S(=O)(=O)N6CCCC6)c5)n4n3)cc2)CC1` [Example 928, 2-[4-(4-{7-[3-(Pyrrolidine-1-sulfonyl)-phenyl]-pyrrolo[2,1-f][1,2,4]triazin-2-ylamino}-phenyl)-piperidin-1-yl]-acetamide], the pIC50 is 6.00 to 7.00 on ALK and greater than 7.00 on JAK2.

Take `CCNS(=O)(=O)c1cccc(-c2ccc3cnc(Nc4ccc(C5CCN(CC(N)=O)CC5)cc4)nn23)c1` [Example 929, 2-(4-{4-[7-(3-Ethylsulfamoyl-phenyl)-pyrrolo[2,1f][1,2,4]triazin-2-ylamino]-phenyl}-piperidin-1-yl)-acetamide]: the pIC50 on ALK and at JAK2 was greater than 7.00 each time.

In the case of `NC(=O)CN1CCC(c2ccc(Nc3ncc4ccc(-c5cccc(S(=O)(=O)NC6CC6)c5)n4n3)cc2)CC1` [Example 930, 2-(4-{4-[7-(3-Cyclopropylsulfamoyl-phenyl)-pyrrolo[2,1-f][1,2,4]triazin-2-ylamino]-phenyl}-piperidin-1-yl)-acetamide], the pIC50 at ALK and on JAK2 was greater than 7.00 each time.

`CN1CCc2ccc(Nc3ncc4ccc(-c5cccc(S(=O)(=O)NC(C)(C)C)c5)n4n3)cc2C1` [Example 931, N-tert-Butyl-3-[2-(2-methyl-1,2,3,4-tetrahydro-isoquinolin-7-ylamino)-pyrrolo[2,1-f][1,2,4]triazin-7-yl]-benzenesulfonamide]: the values for the pIC50 on ALK and on JAK2 were 6.00 to 7.00 and greater than 7.00, respectively.

In the case of `CN1CCC(c2ccc(Nc3ncc4ccc(-c5cnn(CCC#N)c5)n4n3)cc2)CC1` [Example 932, 3-(4-{2-[4-(1-Methyl-piperidin-4-yl)-phenylamino]-pyrrolo[2,1-f][1,2,4]triazin-7-yl}-pyrazol-1-yl)-propionitrile], the pIC50 at ALK is 6.00 to 7.00; at JAK2, greater than 7.00.

Consider `N#CCCn1cc(-c2ccc3cnc(Nc4ccc(C5CCN(CC(N)=O)CC5)cc4)nn23)cn1` [Example 933, 2-[4-(4-{7-[1-(2-Cyano-ethyl)-1H-pyrazol-4-yl]-pyrrolo[2,1-f][1,2,4]triazin-2-ylamino}-phenyl)-piperidin-1-yl]-acetamide], for which the pIC50 is 6.00 to 7.00 at ALK and greater than 7.00 on JAK2.

As to `COc1ccc(-c2ccc3cnc(Nc4ccc(C5CCN(CC(N)=O)CC5)c(C)c4)nn23)cn1` [Example 934, 2-(4-{4-[7-(6-Methoxy-pyridin-3-yl)-pyrrolo[2,1-f][1,2,4]triazin-2-ylamino]-2-methyl-phenyl}-piperidin-1-yl)-acetamide], the pIC50 at ALK and on JAK2 was greater than 7.00 each time.
